A word on the IC50: it is the point on the concentration scale where inhibition reaches its midpoint. A lower IC50 goes with greater potency in that assay.

The subject of assay [1] is NSCLC A549 cell line. The assay is described as follows: MTT assay against human tumor NSCLC A549 cell line. Format: cell-based. The note with it: Homo sapiens. (Formazan colour is commonly taken as a measure of viable cells.)
Assay [2] relates to colon LOVO cell line. The experiment in a line: MTT assay against colon LOVO cell line. Format: cell-based, human. The note with it: Homo sapiens.

The structures appear in SMILES notation.

Consider `C=C1CN(CCOc2cc3nccc(Oc4ccc5[nH]c(C)cc5c4F)c3cc2OC)CC12CC2` [Example 5, 4-(4-Fluoro-2-methyl-1H-indol-5-yloxy)-6-methoxy-7-(2-(7-methylene-5-azaspiro[2.4]heptan-5-yl)ethoxy)quinoline], for which the IC50 in assay [1] came to 0.1 µM; in assay [2], 0.4 µM.

In the case of `COc1cc2c(Oc3ccc4[nH]c(C)cc4c3F)ccnc2cc1OCCN1CC(=O)C2(CC2)C1` [Example 2, 5-(2-(4-(4-Fluoro-2-methyl-1H-indol-5-yloxy)-6-methoxyquinolin-7-yloxy)ethyl)-5-azaspiro[2.4]-heptan-7-one], the values for the IC50 in assay [1] and in assay [2] were 0.1 µM and 0.3 µM, respectively.

These data come from patent US8211911B2, “Compounds as kinase inhibitors” (priority 2008, dated 2012).
